Here are results for one compound from article PMC10121968, “Fosgonimeton, a Novel Positive Modulator of the HGF/MET System, Promotes Neurotrophic and Procognitive Effects in Models of Dementia” (Neurotherapeutics, 2022).

Structures are written as SMILES. Non-standard residues stand in square brackets, D forms with d. Residues, ends and D or L forms follow the SMILES beside them. *: point of attachment. Hexanoyl = CCCCCC(=O)*; Ahx = NCCCCCC(=O)O

The test system of this assay is AKT (Ser473). Put plainly: Phospho-AKT HTRF assay in HEK293 cells. It counts as cell-based, human. The settings on record: HEK293, subthreshold HGF 10 ng/mL + fosgo-AM 0.1 µM, vs HGF alone. From the text: To determine phosphoactivation status of the intracellular signaling molecules ERK (Thr202/Tyr204) or AKT (Ser473), we used homogenous time-resolved fluorescence (HTRF) kits to assess phosphorylation status based on the energy transfer between donor and acceptor phospho-ERK (pERK) or phospho-AKT (pAKT) antibodies. HTRF kit processing for pERK (Phospho-ERK [Thr202/Tyr204] cellular Advanced kit, #64AERPEG, Cisbio, Codolet, France) and pAKT (Phospho-AKT [Ser473] cellular kit, #64AKSPEG, Cisbio, Codolet, France) were carried out per manufacturer instructions. In brief, HEK293 cells were grown at 37 °C, 5% CO2 in DMEM + 10% FBS until approximately 80% confluent. Cells were seeded in polystyrene-treated 96-well cell culture plates at approximately 50,000 cells/well and cultured overnight in 50 µL serum-free growth media. […] Fluorescence emission at 2 different wavelengths (665 nm and 620 nm) were measured on an Envision plate reader (PerkinElmer, Waltham, Massachusetts), and the HTRF ratio of the acceptor and donor emission signals for each well was calculated as follows: HTRF ratio = (665 nm/620 nm) × 10,000. […] Data were assessed for normality (Shapiro–Wilk) and homoscedasticity (Brown-Forsythe). Statistical significance was determined by one-way analysis of variance (ANOVA) with Tukey’s multiple comparison post-test. […]
(In general: In TR-FRET formats the signal depends on donor and acceptor labels being close together.)

For the compound `CCCCCC(=O)N[C@@H](Cc1ccc(O)cc1)C(=O)N[C@H](C(=O)NCCCCCC(N)=O)[C@@H](C)CC` [fosgo-AM] (Hexanoyl-Tyr-Ile-[Ahx]-NH2), the pAKT levels entry is “significant increase”.
